Consider nine compounds from patent publication US10435389B2, “Octahydrocyclopenta[c]pyrrole allosteric inhibitors of SHP2” (Krouzon Pharmaceuticals, Inc., priority 2017, dated 2019).

Counter-ions that a name gives are not always drawn.

As usually defined, the IC50 is the concentration that inhibits the measured activity by half.

The experiment deals with T1, human recombinant SHP2 (Homo sapiens, UniProt Q06124).
T1 sequence (Q06124 1-593): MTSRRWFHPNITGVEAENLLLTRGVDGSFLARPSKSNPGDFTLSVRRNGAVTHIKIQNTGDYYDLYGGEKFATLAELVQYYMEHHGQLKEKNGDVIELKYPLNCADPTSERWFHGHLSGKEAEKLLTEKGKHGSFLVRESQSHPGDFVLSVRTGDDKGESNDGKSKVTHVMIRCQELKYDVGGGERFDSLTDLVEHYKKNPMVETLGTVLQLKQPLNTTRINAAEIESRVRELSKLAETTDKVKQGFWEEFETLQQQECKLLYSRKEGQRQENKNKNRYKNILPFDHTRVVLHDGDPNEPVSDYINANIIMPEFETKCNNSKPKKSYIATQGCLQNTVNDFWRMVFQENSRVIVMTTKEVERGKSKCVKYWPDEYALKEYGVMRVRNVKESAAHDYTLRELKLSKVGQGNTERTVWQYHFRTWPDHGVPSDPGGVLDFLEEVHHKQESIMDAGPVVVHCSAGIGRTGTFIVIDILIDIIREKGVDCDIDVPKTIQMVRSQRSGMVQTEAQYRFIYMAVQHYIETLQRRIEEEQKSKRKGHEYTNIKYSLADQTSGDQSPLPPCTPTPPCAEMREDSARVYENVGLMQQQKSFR
Nature of the experiment: Protein Tyrosine Phosphatase (PTP) assay and IC50 measurements of inhibitors (DiFMUP fluorescence). The format is biochemical. The settings on record: 100 ng/mL human recombinant SHP2, 0.5 μM activating peptide IRS1_pY1172(dPEG8)pY1222, substrate DiFMUP 200 μM, room temperature; read-out: IC50 (SHP2 inhibition). On the procedure: Example E: Protein Tyrosine Phosphatase (PTP) Assay and IC50 Measurements of Inhibitors
The phosphatase activity of SHP2 was monitored using the surrogate substrate DiFMUP in a fluorescence assay format. The phosphatase reactions were performed at room temperature in 96-well black polystyrene plate, flat bottom plate using a final reaction volume of 100 μL with the following assay buffer conditions: 60 mM HEPES, pH 7.2, 75 mM NaCl, 75 mM KCl, 1 mM EDTA, 0.05% Tween-20, 5 mM DTT.
To determine the IC50 of a compound, an eight-point dose response curve was generated in duplicate. Compounds were incubated at concentrations ranging from 0 μM to 10 μM with 100 ng/mL of human recombinant SHP2 and 0.5 μM of activating peptide IRS1_pY1172(dPEG8)pY1222 (sequence H2N-LN(pY)IDLDLV-(dPEG8)LST(pY)ASINFQK-amide) (SEQ ID NO 1). After 30 min incubation at room temperature (23-27° C.), the surrogate substrate DiFMUP (200 μM) was added to the reaction and incubated at room temperature for 30 min. The fluorescence signal was monitored using a microplate reader (Spectramax M5e, […]) using excitation and emission wavelengths of 340 and 450 nm, respectively. The inhibitor dose-response curves were analyzed using SoftmaxPro v5.2 software.
In the case of `C[C@]1(N)C[C@H]2CN(c3cnc(-c4cccc(Cl)c4F)c(N)n3)C[C@H]2C1` [Example 5, (3aR,5r,6aS)-2-(6-amino-5-(3-chloro-2-fluorophenyl)pyrazin-2-yl)-5-methyloctahydrocyclopenta[c]pyrrol-5-amine], the IC50 is under 9 µM.

Consider `C[C@]1(N)C[C@H]2CN(c3cnc(-c4cccc(Cl)c4Cl)c(N)n3)C[C@H]2C1` [Example 2, (3aR,5r,6aS)-2-(6-amino-5-(2,3-dichlorophenyl)pyrazin-2-yl)-5-methyloctahydrocyclopenta[c]pyrrol-5-amine], for which the IC50 is under 9 µM.

Regarding `C[C@]1(N)C[C@H]2CN(c3ncc(-c4cccnc4Cl)c(N)n3)C[C@H]2C1` [Example 13, (3aR,5r,6aS)-2-(4-amino-5-(2-chloropyridin-3-yl)pyrimidin-2-yl)-5-methyloctahydrocyclopenta[c]pyrrol-5-amine], the IC50 was over 10 µM.

For `C[C@]1(N)C[C@H]2CN(c3ncc(-c4cccc(F)c4Cl)c(N)n3)C[C@H]2C1` [Example 12, (3aR,5r,6aS)-2-(4-amino-5-(2-chloro-3-fluorophenyl)pyrimidin-2-yl)-5-methyloctahydrocyclopenta[c]pyrrol-5-amine], the concentration for half-maximal inhibition (IC50) was under 9 µM.

Take `C[C@]1(N)C[C@H]2CN(c3cnc(-c4cccnc4Cl)c(N)n3)C[C@H]2C1` [Example 4, (3aR,5r,6aS)-2-(6-amino-5-(2-chloropyridin-3-yl)pyrazin-2-yl)-5-methyloctahydrocyclopenta[c]pyrrol-5-amine]: the half-inhibitory concentration (IC50) is under 9 µM.

For the compound `Cc1cccc(-c2ncc(N3C[C@@H]4C[C@@](C)(N)C[C@@H]4C3)nc2N)c1Cl` [Example 8, (3aR,5s,6aS)-2-(6-amino-5-(2-chloro-3-methylphenyl)pyrazin-2-yl)-5-methyloctahydrocyclopenta[c]pyrrol-5-amine], the concentration for half-maximal inhibition (IC50) is under 9 µM.

For `Cc1cccc(-c2ncc(N3C[C@@H]4C[C@](C)(N)C[C@@H]4C3)nc2N)c1Cl` [Example 1, (3aR,5r,6aS)-2-(6-amino-5-(2-chloro-3-methylphenyl)pyrazin-2-yl)-5-methyloctahydrocyclopenta[c]pyrrol-5-amine hydrochloride salt], the 50% inhibitory concentration (IC50) is under 9 µM.

With `C[C@]1(N)C[C@H]2CN(c3ncc(-c4cccc(Cl)c4Cl)c(N)n3)C[C@H]2C1` [Example 11, (3aR,5r,6aS)-2-(4-amino-5-(2,3-dichlorophenyl)pyrimidin-2-yl)-5-methyloctahydrocyclopenta[c]pyrrol-5-amine], the IC50 is under 9 µM.

Turning to `C[C@@]1(N)C[C@H]2CN(c3cnc(-c4cccc(Cl)c4Cl)c(N)n3)C[C@H]2C1` [Example 7, (3aR,5s,6aS)-2-(6-amino-5-(2,3-dichlorophenyl)pyrazin-2-yl)-5-methyloctahydrocyclopenta[c]pyrrol-5-amine], the IC50 is under 9 µM.
